Active and inactive are the calls of the source.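 The calls were made as follows: active = half-maximal concentration for the rise in caspase light signal at or below ten times the top tested dose; inconclusive = flat fit between 30% and 70% activity, or unreliable curve fit; inactive = the rest.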

The term EC50 denotes the concentration needed to bring the measured effect to its halfway point.

This assay has as its system MEF A1-2A-BIM cells, caspase 3/7 luminescence, 3 h. In words: inducers of caspase signal in A1-dependent MEFs – cell-based, luminescence, retest, A1 inhibitor project, dose response (AID 2765).

Turning to `O=C(NC1CCCC1)c1cccc2c1C(=O)c1ccc(/C=C/c3ccccc3)cc1S2(=O)=O`, the EC50 is 10.6 µM.
Turning to `CCN(CC)c1ncnc2c1cnn2Cc1ccc(Cl)cc1`, the EC50 was > 35 µM (inactive).
As for `COc1cc(C(=O)NCc2cc(C)nc3ccccc23)cc(OC)c1OC`, the figure is > 35 µM (inactive); as for `COc1ccc2c(c1)c(=O)c(C(=O)c1ccc(F)cc1)cn2CC(=O)Nc1ccc(F)cc1`, > 35 µM (inactive).
As for `Cc1ccc(/C=C/C(=O)c2ccc([N+](=O)[O-])o2)cc1`, the figure is > 35 µM (inactive).
As for `CCOc1ccc(N2CC(C(=O)NNC(=O)c3ccc(Br)cc3)CC2=O)cc1` (centres undefined), the figure is > 35 µM (inactive); as for `Cc1ccc(-c2noc(CSc3nnc(CCc4ccccc4)n3-c3ccccc3)n2)cc1`, > 35 µM (inactive).
Regarding `Cc1[nH]nc2nc(SCC(=O)NCCC3=CCCCC3)n(-c3ccc(Br)cc3)c(=N)c12`, the EC50 was 13.9 µM.
For the compound `NCCCC[C@H](N[C@@H](CCc1ccccc1)C(=O)O)C(=O)N1CCC[C@H]1C(=O)O`, the EC50 was > 35 µM (inactive).
Consider `CC(C)[C@H]1CN=C2N(CCNC(=O)CCC3CCCCC3)[C@H](Cc3ccc(O)cc3)CN21`, for which the EC50 is > 35 µM (inactive).
With `CCS(=O)(=O)c1ncc(Cl)c(C(=O)Nc2ccc(C)cc2)n1` the figure was > 35 µM (inactive).
As for `CC(=O)OC(C)(C)/C=C/C(=O)C(C)(O)C1[C@H](O)C[C@@]2(C)C3CC=C4C(CC[C@@H](O)C4(C)C)[C@]3(CO)C(=O)C[C@]12C` (some centres undefined), the figure is > 35 µM (inactive); as for `Cn1c(O)c(C=NCCN2CCN(C(=O)Nc3ccccc3)CC2)c(=O)n(C)c1=O`, > 35 µM (inactive).
For the compound `COC(=O)C(C)Oc1cc(OC(C)C(=O)OC)c2c(-c3ccccc3)cc(=O)oc2c1` (centres undefined), the EC50 is > 35 µM (inactive).
On to `Cc1ccc(-n2nc3c(=O)n(CC(=O)NCCC4=CCCCC4)nc(C)c3c2C)cc1`, for which the EC50 was > 35 µM (inactive).
As for `COc1ccc(-c2ccc3c(c2)S(=O)(=O)c2cccc(C(=O)NC[C@@H]4CCCO4)c2C3=O)cc1OC`, the figure is > 35 µM (inactive); as for `Cc1cc(Oc2ccc(=O)[nH]n2)nc(Cl)n1`, > 35 µM (inactive); as for `CCCNC(=O)C(Cc1ccccc1F)NC(=O)c1ccccn1` (centres undefined), > 35 µM (inactive).
Regarding `C#CC(=O)N(c1cc(OC)ccc1OC)C(C(=O)NC1CCCC1)c1cccs1` (centres undefined), the EC50 is > 35 µM (inactive).
Regarding `O=C(c1cc(-c2ccccn2)nc2ccc(Cl)cc12)N1CCN(CCc2ccccc2)CC1`, the EC50 is > 35 µM (inactive).
With `O=C(Nc1ccc2oc(-c3ccccc3)nc2c1)c1ccccc1F` the figure was > 35 µM (inactive); with `CCOC(=O)Nc1nc(-c2ccccc2)c(C(=O)c2ccccc2)s1`, > 35 µM (inactive).
In the case of `CCCc1nc2cc3c(cc2[nH]1)n(C)c(=O)n3C`, the EC50 was > 35 µM (inactive).
For the compound `O=C(CCCCCn1c(=O)[nH]c2ccsc2c1=O)N1CCN(C2CCCCC2)CC1`, the EC50 is > 35 µM (inactive).
As for `CC(=O)N1CCN(C2c3cccc4cccc(c34)C2NS(=O)(=O)c2ccccc2)CC1` (centres undefined), the figure is > 35 µM (inactive); as for `CCN(CC(=O)NCc1ccc(Cl)cc1)S(=O)(=O)c1ccc(F)cc1`, > 35 µM (inactive); as for `COc1ccccc1CCCNC(=O)C1CCC(=O)N(Cc2ccccc2F)C1` (centres undefined), > 35 µM (inactive).
Regarding `CCCN1C(=O)C(=O)c2cc(C)ccc21`, the EC50 is > 35 µM (inactive).
With `CCOC(=O)c1c(C)[nH]c(C)c1C(=O)CSc1nc2ccccc2n1CCOC` the figure was > 35 µM (inactive); with `CC(C)=C1C2C=CC1C1C(=O)N(c3ccc4c(c3)OCO4)C(=O)C21` (centres undefined), > 35 µM (inactive).
Take `NS(=O)(=O)c1ccc(CCNC(=O)CN2CCN(S(=O)(=O)c3ccccc3F)CC2)cc1`: the EC50 was > 35 µM (inactive).
As for `CN1C2CCC1/C(=C/c1ccccn1)C(=O)/C2=C\c1ccccn1`, the figure is > 35 µM (inactive).
As for `COc1ccc(C(=O)Nc2ccc(S(=O)(=O)NC(C)=O)cc2)cc1[N+](=O)[O-]`, the figure is > 35 µM (inactive); as for `Cc1nccc2c1[nH]c1ccccc12`, > 35 µM (inactive); as for `COc1ccc([C@H]2CC(=O)C=C(c3ccccc3C(F)(F)F)C2)cc1`, > 35 µM (inactive).
With `O=C(Nc1ccccc1N1CCCCC1)c1ccc(Cl)cc1` the figure was > 35 µM (inactive); with `Cc1cc(N2C(=O)C=CC2=O)c([N+](=O)[O-])cc1C`, > 35 µM (inactive).
Regarding `CCN(CC)S(=O)(=O)c1cc(NC(=O)C2Cc3ccccc3C(=O)O2)ccc1C` (centres undefined), the EC50 was > 35 µM (inactive).
As for `Cc1ccc(OC(=O)C2CCN(C(=O)c3ccccc3C)CC2)c(Br)c1`, the figure is > 35 µM (inactive); as for `FC(F)(F)c1cccc(Cc2noc(CN3CCCC(OCc4ccccn4)C3)n2)c1` (centres undefined), > 35 µM (inactive).
On to `O=C(CCl)N=c1sccn1Cc1ccccc1Cl`, for which the EC50 is > 35 µM (inactive).
Take `COC(=O)C1SCC2C(=O)N(Cc3ccc(Cl)cc3)CC(=O)N21` (centres undefined): the EC50 is > 35 µM (inactive).
Turning to `O=C(c1ccco1)N1CCCN(Cc2nc(-c3ccc4c(c3)OCO4)no2)CC1`, the EC50 is > 35 µM (inactive).
With `O=C(CBr)Nc1c2c(nn1-c1ccccc1)CSC2` the figure was > 35 µM (inactive).
On to `Cc1nn(Cc2c(Cl)cccc2Cl)c(C)c1NC(=O)c1cn(-c2ccccc2)nc1-c1ccccc1`, for which the EC50 is 15.1 µM.
For the compound `CN(C)C(=O)c1ccc(OCC(F)(F)F)nc1`, the EC50 was > 35 µM (inactive).
Take `CCOc1ccc(CNC2CCCCCCC2)cc1OC`: the EC50 is > 35 µM (inactive).
Take `COc1ccccc1-c1cn[nH]c1-c1ccc(OCc2ccccc2)cc1O`: the EC50 is > 35 µM (inactive).
In the case of `Cc1cc(Br)c(OCc2ccc(C(=O)N/N=C/c3ccc[nH]3)cc2)c(Br)c1`, the EC50 is 33.8 µM.
With `Cn1nnnc1Sc1ncnc2scc(-c3cccc4c3sc3ccccc34)c12` the figure was > 35 µM (inactive); with `CN(C)CCN(C(=O)/C=C/c1cccs1)c1nc2c(F)cc(F)cc2s1`, 36.1 µM; with `Cc1cc(C)n(-c2ccc(NC(=O)C3CCN(Cc4ccc(C)o4)CC3)cc2)n1`, > 35 µM (inactive).
Take `C[N+](C)(C)CCNC(=O)c1cc[n+](Cc2ccccc2)c(/C=N/O)c1`: the EC50 is > 35 µM (inactive).
With `Cc1ccc2c(C(=O)N3CCN(c4ccccc4)CC3)cc(-c3cccnc3)nc2c1C` the figure was > 35 µM (inactive); with `CC1(C)C[C@H](O)[C@]2(CO)[C@H](O)C[C@]3(C)C(=CCC4[C@@]5(C)CC[C@H](O)C(C)(C)C5CC[C@]43C)[C@@H]2C1` (some centres undefined), > 35 µM (inactive).
`CCOc1cc(/C=C2/C(=N)N3C=CSC3=NC2=O)ccc1OCCCOc1ccccc1C`: the EC50 was 18 µM.
With `CCOC(=O)/C(=C\c1ccc([N+](=O)[O-])cc1)C(=O)c1cc(C(C)=O)c(Nc2ccccc2)s1` the figure was 1.9 µM; with `CCOc1ccccc1/C=C/c1nc2ccccc2[nH]c1=O`, > 35 µM (inactive).
As to `CCC(=O)c1ccc(N2CCN(C(=O)Cc3ccccc3)CC2)c(F)c1`, the EC50 was > 35 µM (inactive).
On to `CN(C)CCCN(C(=O)c1ccc([N+](=O)[O-])s1)c1nc2cc3c(cc2s1)OCCO3`, for which the EC50 was > 16 µM (inactive).
With `Cc1ccc(N2CCN(C(=S)Nc3ccccc3C)CC2)cc1` the figure was > 35 µM (inactive).
As for `Cc1nc2sc(C(=O)O)c(N)c2c2c1COC(C)(C)C2`, the figure is > 35 µM (inactive).
With `O=C(NC1CCCc2ccccc21)c1ccccc1OC(F)F` (centres undefined) the figure was > 35 µM (inactive); with `COc1ccccc1NS(=O)(=O)c1ccc(C)c(C(=O)N2CCN(c3ccc(O)cc3)CC2)c1`, > 35 µM (inactive).
For `CCCCC1CCC(C(=O)N(CC(C)C)c2c(N)n(Cc3ccccc3)c(=O)[nH]c2=O)CC1` (centres undefined), the EC50 is 5.65 µM.
`Cc1ccc(S(=O)(=O)N2CCCC2)cc1C(=O)NCc1ccccc1CN1CCCC1`: the EC50 was > 35 µM (inactive).
With `CCS(=O)(=O)c1ncc(Cl)c(C(=O)Nc2ccc(S(=O)(=O)N(C)c3ccccc3)cc2)n1` the figure was > 35 µM (inactive); with `CCOC(=O)CCC(=O)Nc1ccc(S(=O)(=O)N2CCC(C)CC2)cc1`, > 35 µM (inactive); with `COC(=O)CN(c1ccc(OC)c(OC)c1)S(C)(=O)=O`, > 35 µM (inactive).
With `S=C(NCCc1ccccc1)NC1CCCCCC1` the figure was > 35 µM (inactive); with `CCOC(=O)C(=Cc1ccc(OCc2ccc([N+](=O)[O-])cc2)c(OC)c1)C(=O)OCC`, > 35 µM (inactive); with `Cc1cccc(C)c1OCc1nnc(SCC(=O)Nc2nccs2)n1-c1ccccc1`, > 35 µM (inactive).
As for `COc1ccc(OC)c2[nH]c(C(=O)N3CCC(C(=O)O)CC3)cc12`, the figure is > 35 µM (inactive); as for `O=C(/C=C/c1ccc(Cl)c(Cl)c1)NC1=NCCS1`, > 35 µM (inactive).
For `O=C(NCc1ccccc1)c1cncc(Br)c1`, the EC50 was > 35 µM (inactive).
Regarding `CCc1cccc(CC)c1NC(=O)C1CSC2(C)CCC(=O)N12` (centres undefined), the EC50 is > 35 µM (inactive).
Regarding `CC(C(=O)N(C)c1ccccc1)N1CCN(C(=O)c2ccccc2)CC1` (centres undefined), the EC50 is > 35 µM (inactive).
As for `Cc1noc(C)c1CSCC(=O)N(C)CC(=O)Nc1ccc(Cl)c(Cl)c1`, the figure is > 35 µM (inactive).
In the case of `COc1ccc(NS(=O)(=O)c2cccc(C(=O)OCC(=O)c3c(N)n(C)c(=O)n(C)c3=O)c2)cc1`, the EC50 was > 35 µM (inactive).
With `CC1CC(C)CN(C(=O)c2ccc(-c3ccc([N+](=O)[O-])cc3)o2)C1` (centres undefined) the figure was > 35 µM (inactive).
On to `COCCNC(=S)N(CCc1c(C)[nH]c2ccccc12)Cc1cccnc1`, for which the EC50 is > 35 µM (inactive).
As for `COc1ccc(S(=O)(=O)NC2CCCC2)cc1C(N)=O`, the figure is > 35 µM (inactive).
Regarding `COc1cccc(/C=N/NC(=O)c2cc3cc([N+](=O)[O-])ccc3s2)c1O`, the EC50 is > 35 µM (inactive).
As for `CCOCCOC(=O)c1[nH]c2c(c1C)C(=O)CC(c1cccs1)C2` (centres undefined), the figure is > 35 µM (inactive).

(Values after PubChem BioAssay AID2765 (Broad Institute, 2010).)
